Structures are written as SMILES. In brackets after ≈: the same amount, converted by molar mass. A value given as a limit tells only on which side of the number the result lay.

In assay [1] the test system is isolated guinea pig lung strips, leukotriene D4 (LTD4). The assay can be described thus: antagonist of LTD4-induced contraction of isolated guinea pig lung strips. The settings on record: Cavia porcellus, read-out: Anticontractile action (lung), LTD4: concentration range corresponding to the IC50 value. In kind it is cell-based. The text has this:
4. Activity as an antagonist of the contraction of isolated guinea pig lung strips
The test carried out is based on the same principle as the test indicated in the pharmacological test 3; however, lung strips are used here.
(§1) Preparation of the organ sections and experimental procedure:
The guinea pig is sacrificed under laughing gas anaesthesia. The entire pulmonary tract is exposed starting from the trachea. The lobes of the lung are cut in a circular fashion such that 3 mm wide strips are formed. The strips of the upper lobes are divided in order to obtain a total of six approximately equal size strips. The strips are suspended in the organ baths under a preload of 4 g. The nutrient solutions used are modified Krebs Henseleit solutions. When using "Platelet activating factor" (PAF) as an […], the composition of this solution corresponds to that for the agonist SP in "Test 3"; for the agonist LTD4 a Krebs Henseleit solution as in the case of the agonist KCl (Test 3) is used. 95% by volume O2, 5% by volume CO2 is used for bubbling through the bath; the bath temperature is 37° C. The experimental procedure is carried out in a therapeutically cumulative methodology, using the dosage graduations 1, 3, 6 and 10 μg/ml.
The experimental animals, organ bath, vehicles and manner of administration correspond to that stated in pharmacological test 3.
All numerical values are indicated in the unit μg/ml and relate to the concentration range of tested compound of the formula I (see example numbers in Table 1) which is necessary in order to cause a contraction which corresponds to the IC50 value.

Assay [2] relates to isolated guinea pig trachea, agonist calcium ionophore A23187. The assay can be described thus: antagonist of calcium ionophore A23187-induced contraction of isolated guinea pig trachea. In kind it is cell-based. To be noted: Cavia porcellus, 37° C., read-out: Anticontractile action (trachea), Ca ionophore: concentration range for dilatation corresponding to ED50 range.
Excerpt: (§2) 3. Activity as antagonist of the contraction of isolated guinea pig trachea
(§3) The compounds of the formula I are used as antagonists of the contraction of isolated guinea pig trachea. The agonists employed were PGF2α (Upjohn, Germany), calcium ionophore A23187 (Calbiochem, Bad Soden, Germany), and substance P (American Peptide Comp., USA):
b) Calcium ionophore A23187 (Calbiochem, Bad Soden) acts by increased uptake of calcium ions, and an activation of all calcium-dependent signal cascades in the cell. Lipoxygenase inhibitors, in particular, and generally antiinflammatory substances show effects in this model.
as §1
(§4) The guinea pig is sacrificed by means of terminal laughing gas anaesthesia. The trachea is exposed along its entire length and cut into 15 individual cartilage rings. 5 rings in each case are tied together to give a chain and fixed in the organ bath under a preload of 3 g. After an equilibration time of 45 minutes, a contraction is produced using the agonist. The antagonist (test preparation) is added cumulatively on the plateau of the maximum. Evaluation is carried out in % force change relative to the contraction maximum. The experimental procedure is carried out at 37° C.; the physiological nutrient solution used is a modified Krebs-Henseleit solution through which is bubbled 95% by volume of O2, 5% by volume of CO2.
(§5) Experimental animals: albino guinea pigs (Hattersheim Animal Breeding Institute, Kastengrund, Germany), weight: 200 to 300 g, sex male or female.
(§6) Vehicle: double-distilled water, ethanol or isopropanol; administration: into the organ bath number of administration: cumulative, in SP individual doses
(§7) All numerical values are indicated in the unit μg/ml and relate to the concentration range of the tested compound of the formula I according to the invention (see example numbers in Table 1) which is necessary in order to cause a dilatation which corresponds to the ED50 range.

Assay [3] concerns Endotoxin (LPS) from Salmonella abortus equi. In words: effect on endotoxin fatality (LPS-induced septic shock). In kind it is in vivo, female NMRI mice. The settings on record: 25 mg/kg i.p. at the same time as LPS 60 mg/kg i.p.; 72 hours; vs placebo control. On the procedure:
2. Test for effect on endotoxin fatality
Individual injections of lipopolysaccharide (LPS), from gram-negative bacteria, lead via a series of various symptoms to septic shock, which usually turns out to be fatal. Endotoxin (LPS) from Salmonella abortus equi in a dose of 60 mg/kg i.p. leads to shock and to death with at most 72 h p.a. (the dose of 60 mg/kg corresponds to approximately 1.20 mg of LPS/animal).
The experimental animals used are female NMRI mice from the Hoechst AG/Hattersheim animal breeding unit having a body weight of 22 to 24 g.
The test substances administered intraperitoneally (i.p.) in an administration volume of 10 ml/kg at the same time as the LPS. The number of surviving animals after 72 hours' LPS administration is indicated in comparison to a placebo control. The number of tested animals per group is 5; dose 25 mg/kg.

Assay [4] relates to isolated guinea pig trachea, agonist PGF2α. The assay can be described thus: antagonist of PGF2α-induced contraction of isolated guinea pig trachea. In kind it is cell-based. To be noted: Cavia porcellus, 37° C., read-out: Anticontractile action (trachea), PGF2α: concentration range for dilatation corresponding to ED50 range.
Excerpt: as §2, §3
Inhibition of contractions which are induced by this cyclooxygenase product is only possible by competitive antagonism at the receptor or of the subsequent signal pathway.
as §1, §4, §5, §6, §7

Assay [5] deals with isolated guinea pig trachea, agonist substance P. In words: antagonist of substance P-induced contraction of isolated guinea pig trachea. In kind it is cell-based. To be noted: Cavia porcellus, individual doses, 37° C., read-out: Anticontractile action (trachea), SP antagonism: concentration range for dilatation corresponding to ED50 range.
A further assay has as its system phosphodiesterase III. The assay can be described thus: inhibition of phosphodiesterase III activity. It is filed as biochemical. The settings on record: at 100 μM. The protocol: 5. Inhibition of phosphodiesterase III activity
The test is carried out using phosphodiesterase from Boehringer Mannheim (Mannheim, Germany), Order No. 108 243 according to the method of T. SAEKI, I. SAITO, Biochem. Pharm. 46, No. 5, […], pages 833-839.
All numerical values are indicated in % inhibition of the enzyme activity at 100 μM of the corresponding compound of the formula I.

The subject of assay [6] is isolated guinea pig lung strips, Platelet activating factor (PAF). The assay can be described thus: antagonist of PAF-induced contraction of isolated guinea pig lung strips. The settings on record: Cavia porcellus, read-out: Anticontractile action (lung), PAF: concentration range corresponding to the IC50 value. In kind it is cell-based. The method in brief:
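Guinea pig lung strips, 3 mm wide, held at 4 g preload in modified Krebs-Henseleit at 37° C, gassed 95% O2/5% CO2, contracted by PAF or LTD4. Compound given cumulatively at 1, 3, 6 and 10 μg/ml; value is the concentration in μg/ml giving IC50-level effect.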

As for `CCOP(=O)(CCCn1cnc2c1c(=O)[nH]c(=O)n2C)OCC` [Example 2, Diethyl [4-(3-methylxanthin-7-yl)propyl]phosphonate], the IC50 in assay [1] and in assay [6] was 3 to 6 µg/mL (≈ 8.71 to 17.4 µM) each time. Besides, the results for the EC50 in assay [2], in assay [4] and in assay [5] were more than 10 µg/mL, more than 10 µg/mL and 10 to 30 µg/mL (≈ 29 to 87.1 µM), respectively. This molecule also registered an Inhibition of mortality in assay [3] of 100%. Further, the “PDE III Inhibition” value in the assay on phosphodiesterase III is given as 65%.
